Laboratory results as given in patent US20040014047A1, “Antisense modulation of LIM domain kinase 1 expression” (Isis Pharmaceuticals Inc., priority 2002, published 2004).
Strand notation (5' to 3'): a small letter for the sugar, then the base; units joined by * are phosphorothioate-linked, units joined directly phosphodiester-linked; [ ] holds rarer units or linkages, { } end groups; capitals alone tell only the bases. e = 2'-O-(2-methoxyethyl) (MOE); [5mC] = 5-methylcytosine; d = 2'-deoxy (DNA)

What follows are substances tested on human LIM domain kinase 1 mRNA (assay: Antisense inhibition of human LIM domain kinase 1 mRNA levels, quantitative real-time PCR, A549 cells (screen)). Conditions: quantitative real-time PCR, averages from two experiments, screening concentration not given (50 nM to 300 nM used herein).
Assay type: cell-based
Description: When cells reached 70% confluency, they were treated with oligonucleotide. […] Cells were harvested 16-24 hours after oligonucleotide treatment.
Vacuum was applied for 1 minute.
PCR reagents were obtained from Invitrogen Corporation, (Carlsbad, Calif.).
Total RNA is quantified using RiboGreenTM RNA quantification reagent from Molecular Probes.
Probes and primers to human LIM domain kinase 1 were designed to hybridize to a human LIM domain kinase 1 sequence, using published sequence information (GenBank accession number D26309.1, incorporated herein as SEQ ID NO:4). For human LIM domain kinase 1 the PCR primers were: forward primer: […] (SEQ ID NO: 5) reverse primer: […] (SEQ ID NO: 6) and the PCR probe was: FAM-[…]-TAMRA (SEQ ID NO: 7) where FAM is the fluorescent dye and TAMRA is the quencher dye.
All cytidine residues are 5-methylcytidines. […] Data are averages from two experiments in which A549 cells were treated with the oligonucleotides of the present invention. […] If present, “N.D.” indicates “no data”.
With “206210 (antisense e[5mC]*e[5mC]*eT*e[5mC]*e[5mC]*dA*dG*dG*dG*dA*dG*d[5mC]*dT*dA*dT*eG*eG*eA*e[5mC]*e[5mC]) [compound 206210]” the “% INHIB (inhibition of human LIM domain kinase 1 mRNA levels)” value (shortened to “% INHIB”) was 83%. “206211 (antisense eT*e[5mC]*eT*eG*e[5mC]*d[5mC]*d[5mC]*dT*dG*dA*dT*dG*dT*dG*d[5mC]*eG*e[5mC]*e[5mC]*e[5mC]*eT) [compound 206211]” was tested, and the “% INHIB” value was 59%. In the case of “206213 (antisense e[5mC]*e[5mC]*e[5mC]*eT*eG*dA*dG*dG*d[5mC]*dT*dT*dG*dG*dT*dA*e[5mC]*e[5mC]*eT*eG*e[5mC]) [compound 206213]”, the “% INHIB” value is reported as 14%. “206215 (antisense eG*e[5mC]*eA*eG*e[5mC]*dT*dG*d[5mC]*dT*dG*d[5mC]*dT*dG*d[5mC]*dA*eG*e[5mC]*e[5mC]*eG*eT) [compound 206215]” was tested, and the “% INHIB” value was 75%. “206216 (antisense eT*e[5mC]*eA*e[5mC]*eA*dG*dT*dT*dT*dT*dA*dA*dT*dA*d[5mC]*eT*eT*e[5mC]*e[5mC]*eT) [compound 206216]” was tested, and the “% INHIB” value was 0%. For “206217 (antisense eA*eA*eG*e[5mC]*eT*dT*d[5mC]*dA*d[5mC]*dA*dG*dT*dT*dT*dT*eA*eA*eT*eA*e[5mC]) [compound 206217]”, the “% INHIB” value was 68%. “206218 (antisense eT*eG*eA*eG*eA*dA*dA*dG*d[5mC]*dT*dT*d[5mC]*dA*d[5mC]*dA*eG*eT*eT*eT*eT) [compound 206218]” was tested, and the “% INHIB” value was 43%. In the case of “206220 (antisense e[5mC]*eA*eA*eA*eG*dT*dG*d[5mC]*dA*d[5mC]*dT*dG*dA*dG*dA*eA*eA*eG*e[5mC]*eT) [compound 206220]”, the “% INHIB” value is reported as 59%. For “206221 (antisense eT*e[5mC]*e[5mC]*e[5mC]*eA*d[5mC]*d[5mC]*dT*d[5mC]*d[5mC]*d[5mC]*dT*dA*dA*dG*eT*e[5mC]*eA*eT*eG) [compound 206221]”, the “% INHIB” value was 17%. With “206222 (antisense eG*eG*eT*eG*eG*dG*dT*d[5mC]*d[5mC]*d[5mC]*dA*d[5mC]*d[5mC]*dT*d[5mC]*e[5mC]*e[5mC]*eT*eA*eA) [compound 206222]” the “% INHIB” value was 63%. With “206223 (antisense eG*eG*eT*eG*eT*dG*dT*d[5mC]*dA*d[5mC]*d[5mC]*dT*dT*dG*dA*eT*eA*eG*e[5mC]*e[5mC]) [compound 206223]” the “% INHIB” value was 62%. In the case of “206224 (antisense eG*e[5mC]*eT*eG*e[5mC]*dT*dG*d[5mC]*dA*dG*d[5mC]*d[5mC]*dG*dT*dA*eT*eG*eA*eA*eA) [compound 206224]”, the “% INHIB” value is reported as 66%. In the case of “206225 (antisense eG*eG*eA*eG*eT*dG*dA*dA*dA*dG*d[5mC]*dA*d[5mC]*d[5mC]*d[5mC]*eA*eG*e[5mC]*eT*eG) [compound 206225]”, the “% INHIB” value is reported as 74%. For “206226 (antisense eT*eA*eG*eG*eT*d[5mC]*d[5mC]*d[5mC]*dA*d[5mC]*dA*dG*d[5mC]*d[5mC]*d[5mC]*e[5mC]*eT*eG*eA*eG) [compound 206226]”, the “% INHIB” value was 9%. “206227 (antisense e[5mC]*eT*e[5mC]*eA*eG*dA*d[5mC]*d[5mC]*d[5mC]*dT*dT*dG*dA*dG*dT*eT*eA*e[5mC]*eT*eG) [compound 206227]” was tested, and the “% INHIB” value was 68%. “206228 (antisense eA*e[5mC]*eT*eG*e[5mC]*d[5mC]*dT*d[5mC]*dT*d[5mC]*dG*dG*dG*dT*dT*e[5mC]*eA*eA*eG*e[5mC]) [compound 206228]” was tested, and the “% INHIB” value was 69%. With “206229 (antisense eG*eT*e[5mC]*eA*e[5mC]*dA*dA*d[5mC]*dA*d[5mC]*d[5mC]*dT*dG*d[5mC]*dA*eG*eG*eA*eG*eA) [compound 206229]” the “% INHIB” value was 66%. “206230 (antisense e[5mC]*e[5mC]*eA*eG*eG*dT*dG*dA*dG*dT*dG*dT*dG*d[5mC]*dA*eA*eG*eG*e[5mC]*eA) [compound 206230]” was tested, and the “% INHIB” value was 74%. For “206231 (antisense eG*e[5mC]*eA*eG*eT*dG*d[5mC]*d[5mC]*d[5mC]*dG*d[5mC]*dT*dG*d[5mC]*dA*eA*eG*eA*eG*e[5mC]) [compound 206231]”, the “% INHIB” value was 76%. For “206232 (antisense eA*eT*eG*e[5mC]*eT*dG*d[5mC]*dA*dG*d[5mC]*dT*d[5mC]*d[5mC]*dT*d[5mC]*e[5mC]*eT*eG*eG*eG) [compound 206232]”, the “% INHIB” value was 81%. With “206233 (antisense eG*eG*eT*e[5mC]*e[5mC]*dT*dT*dG*d[5mC]*dG*d[5mC]*dT*dG*dG*dG*eA*eG*eG*e[5mC]*e[5mC]) [compound 206233]” the “% INHIB” value was 80%. In the case of “206234 (antisense e[5mC]*eA*eT*eT*e[5mC]*dT*dT*dG*dT*dT*d[5mC]*dT*dG*dG*dG*eA*eA*eG*eG*eT) [compound 206234]”, the “% INHIB” value is reported as 61%. “206235 (antisense eT*eA*eG*e[5mC]*eT*dG*dG*dG*dA*dT*dT*dA*d[5mC]*dA*dG*eT*eA*e[5mC]*eT*eA) [compound 206235]” was tested, and the “% INHIB” value was 53%. With “206236 (antisense e[5mC]*eT*eG*eG*eA*d[5mC]*d[5mC]*dT*dA*d[5mC]*d[5mC]*dT*d[5mC]*dG*d[5mC]*eA*e[5mC]*eA*eG*eG) [compound 206236]” the “% INHIB” value was 43%. For “206237 (antisense eG*eT*e[5mC]*e[5mC]*eT*dG*d[5mC]*d[5mC]*d[5mC]*d[5mC]*dA*d[5mC]*dA*dG*dA*e[5mC]*eT*e[5mC]*eA*eG) [compound 206237]”, the “% INHIB” value was 62%. With “206238 (antisense eG*e[5mC]*eA*eT*eG*dA*dA*dG*dG*d[5mC]*dA*d[5mC]*dT*dA*d[5mC]*e[5mC]*eT*e[5mC]*e[5mC]*e[5mC]) [compound 206238]” the “% INHIB” value was 53%.

Same assay, conditions: real-time PCR, bound stated
With “aaaggatggcctcttctcgg (eA*eA*eA*eG*eG*dA*dT*dG*dG*d[5mC]*d[5mC]*dT*d[5mC]*dT*dT*e[5mC]*eT*e[5mC]*eG*eG; antisense) [ISIS 206205]” the “inhibition of human LIM domain kinase 1 expression (text summary of Table 1)” value (“inhibition … (text summary of Table 1)” below) was “at least 65%”. For “aacctcatgcactcgacggg (eA*eA*e[5mC]*e[5mC]*eT*d[5mC]*dA*dT*dG*d[5mC]*dA*d[5mC]*dT*d[5mC]*dG*eA*e[5mC]*eG*eG*eG; antisense) [ISIS 206161]”, the “inhibition … (text summary of Table 1)” value was “at least 65%”. In the case of “aagcttcacagttttaatac (eA*eA*eG*e[5mC]*eT*dT*d[5mC]*dA*d[5mC]*dA*dG*dT*dT*dT*dT*eA*eA*eT*eA*e[5mC]; antisense) [ISIS 206217]”, the “inhibition … (text summary of Table 1)” value is reported as “at least 65%”. With “acatctgggctcatgcagcc (eA*e[5mC]*eA*eT*e[5mC]*dT*dG*dG*dG*d[5mC]*dT*d[5mC]*dA*dT*dG*e[5mC]*eA*eG*e[5mC]*e[5mC]; antisense) [ISIS 206180]” the “inhibition … (text summary of Table 1)” value was “at least 65%”. For “actgcctctcgggttcaagc (eA*e[5mC]*eT*eG*e[5mC]*d[5mC]*dT*d[5mC]*dT*d[5mC]*dG*dG*dG*dT*dT*e[5mC]*eA*eA*eG*e[5mC]; antisense) [ISIS 206228]”, the “inhibition … (text summary of Table 1)” value was “at least 65%”. For “agcttggagtgctccaccag (eA*eG*e[5mC]*eT*eT*dG*dG*dA*dG*dT*dG*d[5mC]*dT*d[5mC]*d[5mC]*eA*e[5mC]*e[5mC]*eA*eG; antisense) [ISIS 206177]”, the “inhibition … (text summary of Table 1)” value was “at least 65%”. “agggcctggaggtactggcc (eA*eG*eG*eG*e[5mC]*d[5mC]*dT*dG*dG*dA*dG*dG*dT*dA*d[5mC]*eT*eG*eG*e[5mC]*e[5mC]; antisense) [ISIS 206171]” was tested, and the “inhibition … (text summary of Table 1)” value was “at least 65%”. For “aggtaggccatccctgatgc (eA*eG*eG*eT*eA*dG*dG*d[5mC]*d[5mC]*dA*dT*d[5mC]*d[5mC]*d[5mC]*dT*eG*eA*eT*eG*e[5mC]; antisense) [ISIS 206201]”, the “inhibition … (text summary of Table 1)” value was “at least 65%”. “aggtccttgcgctgggaggc (eA*eG*eG*eT*e[5mC]*d[5mC]*dT*dT*dG*d[5mC]*dG*d[5mC]*dT*dG*dG*eG*eA*eG*eG*e[5mC]; antisense) [ISIS 206193]” was tested, and the “inhibition … (text summary of Table 1)” value was “at least 65%”. “agtacagcttggagtgctcc (eA*eG*eT*eA*e[5mC]*dA*dG*d[5mC]*dT*dT*dG*dG*dA*dG*dT*eG*e[5mC]*eT*e[5mC]*e[5mC]; antisense) [ISIS 206178]” was tested, and the “inhibition … (text summary of Table 1)” value was “at least 65%”. With “agtagtccttcttgcagaag (eA*eG*eT*eA*eG*dT*d[5mC]*d[5mC]*dT*dT*d[5mC]*dT*dT*dG*d[5mC]*eA*eG*eA*eA*eG; antisense) [ISIS 206173]” the “inhibition … (text summary of Table 1)” value was “at least 65%”. In the case of “atacgttcttccctccaggt (eA*eT*eA*e[5mC]*eG*dT*dT*d[5mC]*dT*dT*d[5mC]*d[5mC]*d[5mC]*dT*d[5mC]*e[5mC]*eA*eG*eG*eT; antisense) [ISIS 206167]”, the “inhibition … (text summary of Table 1)” value is reported as “at least 65%”. With “atgctgcagctcctcctggg (eA*eT*eG*e[5mC]*eT*dG*d[5mC]*dA*dG*d[5mC]*dT*d[5mC]*d[5mC]*dT*d[5mC]*e[5mC]*eT*eG*eG*eG; antisense) [ISIS 206232]” the “inhibition … (text summary of Table 1)” value was “at least 65%”.
